The source of these data is ChEMBL document CHEMBL3608278 (J Med Chem, 2015).

Bounds are passed on as bounds.

In general, IC50 refers to the point on the concentration scale where inhibition reaches its midpoint. Low values mean greater potency, high ones weaker potency.

Experiment [1] deals with T1, Potassium voltage-gated channel subfamily A member 3 (Homo sapiens, UniProt P22001). The format is cell-based, CHO-K1.
For experiment [2], the target named is T1, Potassium voltage-gated channel subfamily A member 3. The experiment is described as follows: cell-based. Further details: species or system Blood.
Experiment [3] shares this target. Also noted: species or system Blood.

T1 sequence (P22001 whole entry): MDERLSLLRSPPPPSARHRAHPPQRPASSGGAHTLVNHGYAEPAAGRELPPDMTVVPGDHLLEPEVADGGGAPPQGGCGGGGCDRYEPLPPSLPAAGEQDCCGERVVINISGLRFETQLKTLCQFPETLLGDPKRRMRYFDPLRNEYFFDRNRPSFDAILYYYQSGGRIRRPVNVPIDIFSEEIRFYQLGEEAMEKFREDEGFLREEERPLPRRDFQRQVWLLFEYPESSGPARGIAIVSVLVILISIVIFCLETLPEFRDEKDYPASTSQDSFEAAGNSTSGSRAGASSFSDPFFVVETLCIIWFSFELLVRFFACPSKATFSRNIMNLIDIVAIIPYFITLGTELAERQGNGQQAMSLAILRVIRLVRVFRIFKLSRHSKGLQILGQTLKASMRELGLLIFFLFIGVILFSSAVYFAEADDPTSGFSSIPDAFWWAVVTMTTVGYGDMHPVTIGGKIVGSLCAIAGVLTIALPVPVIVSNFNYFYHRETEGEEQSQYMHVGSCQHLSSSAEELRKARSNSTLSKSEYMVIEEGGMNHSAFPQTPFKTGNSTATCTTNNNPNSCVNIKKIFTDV

`CC[C@H](C)[C@@H]1NC(=O)[C@@H](NC(=O)[C@H](CO)NC(=O)[C@@H](N)CCCNC(=N)N)CSSC[C@@H](C(=O)O)NC(=O)[C@H]([C@@H](C)O)NC(=O)CNC(=O)[C@@H]2CSSC[C@@H]3NC(=O)[C@H](CCC(N)=O)NC(=O)[C@H](Cc4ccccc4)NC(=O)[C@H](C)NC(=O)[C@H]([C@@H](C)O)NC(=O)[C@H](CSSC[C@H](NC(=O)[C@H](Cc4ccccc4)NC(=O)[C@H](CO)NC(=O)[C@H](CC(C)C)NC(=O)[C@H](CCCNC(=N)N)NC(=O)[C@H](Cc4ccc(O)cc4)NC(=O)[C@H](CCCCN)NC(=O)[C@H](CCC(=O)O)NC(=O)[C@H](CO)NC(=O)[C@H](Cc4cnc[nH]4)NC(=O)[C@H](CCCCN)NC3=O)C(=O)N[C@@H](CCCNC(=N)N)C(=O)N[C@@H](CCCCN)C(=O)N[C@@H]([C@@H](C)O)C(=O)N2)NC(=O)[C@H](CCCNC(=N)N)NC(=O)[C@H](CO)NC(=O)[C@H](CCCCN)NC(=O)[C@@H]2CCCN2C(=O)[C@H]([C@@H](C)CC)NC(=O)[C@H]([C@@H](C)O)NC(=O)[C@H](CC(=O)O)NC1=O`: the IC50 in experiment [1] was over 3.33 nM; in experiment [2] it was 18.5 nM; in experiment [3], 28.1 nM.

Consider `CC[C@H](C)[C@@H]1NC(=O)[C@@H](NC(=O)[C@H](CO)NC(=O)[C@@H](N)CCCNC(=N)N)CSSC[C@@H](C(=O)O)NC(=O)[C@H]([C@@H](C)O)NC(=O)CNC(=O)[C@@H]2CSSC[C@@H]3NC(=O)[C@H](CCC(N)=O)NC(=O)[C@H](Cc4ccccc4)NC(=O)[C@H](C)NC(=O)[C@H]([C@@H](C)O)NC(=O)[C@H](CSSC[C@H](NC(=O)[C@H](Cc4ccccc4)NC(=O)[C@H](CO)NC(=O)[C@H](CC(C)C)NC(=O)[C@H](CCCNC(=N)N)NC(=O)[C@H](Cc4ccc(O)cc4)NC(=O)[C@H](CCC(=O)O)NC(=O)[C@H](CCSC)NC(=O)[C@H](CO)NC(=O)[C@H](Cc4cnc[nH]4)NC(=O)[C@H](CCCCN)NC3=O)C(=O)N[C@@H](CCCNC(=N)N)C(=O)N[C@@H](CCCCN)C(=O)N[C@@H]([C@@H](C)O)C(=O)N2)NC(=O)[C@H](CCCNC(=N)N)NC(=O)[C@H](CO)NC(=O)[C@H](CCCCN)NC(=O)[C@@H]2CCCN2C(=O)[C@H]([C@@H](C)CC)NC(=O)[C@H]([C@@H](C)O)NC(=O)[C@H](CC(=O)O)NC1=O`, for which the IC50 in experiment [1] was over 3.33 nM; in experiment [2], over 100 nM; in experiment [3] it was over 100 nM.

With `CC[C@H](C)[C@@H]1NC(=O)[C@@H](NC(=O)[C@H](CO)NC(=O)[C@@H](N)CCCNC(=N)N)CSSC[C@@H](C(=O)O)NC(=O)[C@H]([C@@H](C)O)NC(=O)CNC(=O)[C@@H]2CSSC[C@@H]3NC(=O)[C@H](CCC(N)=O)NC(=O)[C@H](Cc4ccccc4)NC(=O)[C@H](C)NC(=O)[C@H]([C@@H](C)O)NC(=O)[C@H](CSSC[C@H](NC(=O)[C@H](Cc4ccccc4)NC(=O)[C@H](CO)NC(=O)[C@H](CC(C)C)NC(=O)[C@H](CCCNC(=N)N)NC(=O)[C@H](CCC(=O)O)NC(=O)[C@H](CCCCN)NC(=O)[C@H](CCSC)NC(=O)[C@H](CO)NC(=O)[C@H](Cc4cnc[nH]4)NC(=O)[C@H](CCCCN)NC3=O)C(=O)N[C@@H](CCCNC(=N)N)C(=O)N[C@@H](CCCCN)C(=O)N[C@@H]([C@@H](C)O)C(=O)N2)NC(=O)[C@H](CCCNC(=N)N)NC(=O)[C@H](CO)NC(=O)[C@H](CCCCN)NC(=O)[C@@H]2CCCN2C(=O)[C@H]([C@@H](C)CC)NC(=O)[C@H]([C@@H](C)O)NC(=O)[C@H](CC(=O)O)NC1=O`, the IC50 is over 3.33 nM in experiment [1], over 100 nM in experiment [2] and over 100 nM in experiment [3].

Turning to `CC[C@H](C)[C@@H]1NC(=O)[C@@H](NC(=O)[C@H](CO)NC(=O)[C@@H](N)CCCNC(=N)N)CSSC[C@@H](C(=O)O)NC(=O)[C@H]([C@@H](C)O)NC(=O)CNC(=O)[C@@H]2CSSC[C@@H]3NC(=O)[C@H](CCC(N)=O)NC(=O)[C@H](Cc4ccccc4)NC(=O)[C@H](C)NC(=O)[C@H]([C@@H](C)O)NC(=O)[C@H](CSSC[C@H](NC(=O)[C@H](Cc4ccccc4)NC(=O)[C@H](CO)NC(=O)[C@H](CCC(=O)O)NC(=O)[C@H](CCCNC(=N)N)NC(=O)[C@H](Cc4ccc(O)cc4)NC(=O)[C@H](CCCCN)NC(=O)[C@H](CCSC)NC(=O)[C@H](CO)NC(=O)[C@H](Cc4cnc[nH]4)NC(=O)[C@H](CCCCN)NC3=O)C(=O)N[C@@H](CCCNC(=N)N)C(=O)N[C@@H](CCCCN)C(=O)N[C@@H]([C@@H](C)O)C(=O)N2)NC(=O)[C@H](CCCNC(=N)N)NC(=O)[C@H](CO)NC(=O)[C@H](CCCCN)NC(=O)[C@@H]2CCCN2C(=O)[C@H]([C@@H](C)CC)NC(=O)[C@H]([C@@H](C)O)NC(=O)[C@H](CC(=O)O)NC1=O`, the IC50 in experiment [1] came to 0.245 nM; in experiment [2], 0.494 nM; in experiment [3] it was 0.678 nM.

With `CC[C@H](C)[C@@H]1NC(=O)[C@@H](NC(=O)[C@H](CO)NC(=O)[C@@H](N)CCCNC(=N)N)CSSC[C@@H](C(=O)O)NC(=O)[C@H]([C@@H](C)O)NC(=O)CNC(=O)[C@@H]2CSSC[C@@H]3NC(=O)[C@H](CCC(N)=O)NC(=O)[C@H](Cc4ccccc4)NC(=O)[C@H](C)NC(=O)[C@H]([C@@H](C)O)NC(=O)[C@H](CSSC[C@H](NC(=O)[C@H](CCC(=O)O)NC(=O)[C@H](CO)NC(=O)[C@H](CC(C)C)NC(=O)[C@H](CCCNC(=N)N)NC(=O)[C@H](Cc4ccc(O)cc4)NC(=O)[C@H](CCCCN)NC(=O)[C@H](CCSC)NC(=O)[C@H](CO)NC(=O)[C@H](Cc4cnc[nH]4)NC(=O)[C@H](CCCCN)NC3=O)C(=O)N[C@@H](CCCNC(=N)N)C(=O)N[C@@H](CCCCN)C(=O)N[C@@H]([C@@H](C)O)C(=O)N2)NC(=O)[C@H](CCCNC(=N)N)NC(=O)[C@H](CO)NC(=O)[C@H](CCCCN)NC(=O)[C@@H]2CCCN2C(=O)[C@H]([C@@H](C)CC)NC(=O)[C@H]([C@@H](C)O)NC(=O)[C@H](CC(=O)O)NC1=O`, the half-maximal inhibitory concentration (IC50) in experiment [1] was over 3.33 nM; in experiment [2] it was 8.16 nM; in experiment [3], 34 nM.

As for `CC[C@H](C)[C@@H]1NC(=O)[C@@H](NC(=O)[C@H](CO)NC(=O)[C@@H](N)CCCNC(=N)N)CSSC[C@@H](C(=O)O)NC(=O)[C@H]([C@@H](C)O)NC(=O)CNC(=O)[C@@H]2CSSC[C@@H]3NC(=O)[C@H](CCC(N)=O)NC(=O)[C@H](Cc4ccccc4)NC(=O)[C@H](C)NC(=O)[C@H]([C@@H](C)O)NC(=O)[C@H](CSSC[C@H](NC(=O)[C@H](Cc4ccccc4)NC(=O)[C@H](CO)NC(=O)[C@H](CC(C)C)NC(=O)[C@H](CCCNC(=N)N)NC(=O)[C@H](Cc4ccc(O)cc4)NC(=O)[C@H](CCCCN)NC(=O)[C@H](CCSC)NC(=O)[C@H](CO)NC(=O)[C@H](Cc4cnc[nH]4)NC(=O)[C@H](CCCCN)NC3=O)C(=O)N[C@@H](CCCNC(=N)N)C(=O)N[C@@H](CCC(=O)O)C(=O)N[C@@H]([C@@H](C)O)C(=O)N2)NC(=O)[C@H](CCCNC(=N)N)NC(=O)[C@H](CO)NC(=O)[C@H](CCCCN)NC(=O)[C@@H]2CCCN2C(=O)[C@H]([C@@H](C)CC)NC(=O)[C@H]([C@@H](C)O)NC(=O)[C@H](CC(=O)O)NC1=O`, the IC50 in experiment [1] turned out to be 0.278 nM; in experiment [2], 0.02 nM; in experiment [3] it was 0.043 nM.

As to `CC[C@H](C)[C@@H]1NC(=O)[C@@H](NC(=O)[C@H](CO)NC(=O)[C@@H](N)CCCNC(=N)N)CSSC[C@@H](C(=O)O)NC(=O)[C@H]([C@@H](C)O)NC(=O)CNC(=O)[C@@H]2CSSC[C@@H]3NC(=O)[C@H](CCC(N)=O)NC(=O)[C@H](Cc4ccccc4)NC(=O)[C@H](C)NC(=O)[C@H]([C@@H](C)O)NC(=O)[C@H](CSSC[C@H](NC(=O)[C@H](Cc4ccccc4)NC(=O)[C@H](CO)NC(=O)[C@H](CC(C)C)NC(=O)[C@H](CCCNC(=N)N)NC(=O)[C@H](Cc4ccc(O)cc4)NC(=O)[C@H](CCCCN)NC(=O)[C@H](CCSC)NC(=O)[C@H](CO)NC(=O)[C@H](Cc4cnc[nH]4)NC(=O)[C@H](CCCCN)NC3=O)C(=O)N[C@@H](CCCNC(=N)N)C(=O)N[C@@H](CCCCN)C(=O)N[C@@H](CCC(=O)O)C(=O)N2)NC(=O)[C@H](CCCNC(=N)N)NC(=O)[C@H](CO)NC(=O)[C@H](CCCCN)NC(=O)[C@@H]2CCCN2C(=O)[C@H]([C@@H](C)CC)NC(=O)[C@H]([C@@H](C)O)NC(=O)[C@H](CC(=O)O)NC1=O`, the IC50 in experiment [1] was determined as 0.234 nM; in experiment [2], 0.242 nM; in experiment [3], 0.309 nM.

Consider `CC[C@H](C)[C@@H]1NC(=O)[C@@H](NC(=O)[C@H](CO)NC(=O)[C@@H](N)CCCNC(=N)N)CSSC[C@@H](C(=O)O)NC(=O)[C@H]([C@@H](C)O)NC(=O)CNC(=O)[C@@H]2CSSC[C@@H]3NC(=O)[C@H](CCC(N)=O)NC(=O)[C@H](Cc4ccccc4)NC(=O)[C@H](C)NC(=O)[C@H]([C@@H](C)O)NC(=O)[C@H](CSSC[C@H](NC(=O)[C@H](Cc4ccccc4)NC(=O)[C@H](CO)NC(=O)[C@H](CC(C)C)NC(=O)[C@H](CCCNC(=N)N)NC(=O)[C@H](Cc4ccc(O)cc4)NC(=O)[C@H](CCCCN)NC(=O)[C@H](CCSC)NC(=O)[C@H](CO)NC(=O)[C@H](Cc4cnc[nH]4)NC(=O)[C@H](CCCCN)NC3=O)C(=O)N[C@@H](CCCNC(=N)N)C(=O)N[C@@H](CCCCN)C(=O)N[C@@H]([C@@H](C)O)C(=O)N2)NC(=O)[C@H](CCCNC(=N)N)NC(=O)[C@H](CO)NC(=O)[C@H](CCCCN)NC(=O)[C@@H]2CCCN2C(=O)[C@H]([C@@H](C)CC)NC(=O)[C@H]([C@@H](C)O)NC(=O)[C@H](CCCNC(=N)N)NC1=O`, for which the IC50 in experiment [1] is over 3.33 nM; in experiment [2], 40.5 nM; in experiment [3], 91.7 nM.
